Test results taken from the supplement of paper PMC10307832.

How the values were obtained:
Test in all cases: relative viability (nuclei count vs DMSO), 5 days (fraction); higher = more cells survive
[1] = test system: NCI-H2347
How it was run: (§1)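 Dosing by pin tool came one day after lung cancer cell lines were seeded in 1536-well plates, using either one drug or a fixed anchor-drug dose plus five library-drug doses (not always all listed) in √10 steps. After 5 days, nuclei were counted on 4× images. Relative viability is treated-well nuclei count divided by vehicle-well nuclei count, and values are medians of duplicate plates.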

[2] = test system: EKVX
How it was run: as §1

[3] = test system: NCI-H1734
How it was run: as §1

[4] = test system: LK-2
How it was run: as §1

[5] = test system: NCI-H1755
How it was run: as §1

[6] = test system: H3255
How it was run: as §1

[7] = test system: NCI-H1650
How it was run: as §1

[8] = test system: NCI-H650
How it was run: as §1

[9] = test system: NCI-H358
How it was run: as §1

[10] = test system: NCI-H596
How it was run: as §1

[11] = test system: ChaGo-K-1
How it was run: as §1

[12] = test system: A-427
How it was run: as §1

[13] = test system: NCI-H2228
How it was run: as §1

`CCCCCCCCCCCC1=C(O)C(=O)C=C(O)C1=O` [Embelin] + CCNC(=O)c1noc(-c2cc(C(C)C)c(O)cc2O)c1-c1ccc(CN2CCOCC2)cc1 [Luminespib] (partner 0.01 µM) was tested, and the relative viability ([1]; first compound 2.53 µM) was 0.686, the relative viability ([1]; first compound 8 µM) was 0.62 and the relative viability ([2]; first compound 0.08 µM) was 0.864. It also gave a relative viability ([2]; first compound 0.8 µM) of 0.888, a relative viability ([2]; first compound 2.53 µM) of 0.876 and a relative viability ([2]; first compound 8 µM) of 0.966. The relative viability ([3]; first compound 0.08 µM) was 0.201, the relative viability ([3]; first compound 0.8 µM) was 0.208 and the relative viability ([3]; first compound 2.53 µM) was 0.208. It also gave a relative viability ([3]; first compound 8 µM) of 0.197, a relative viability ([4]; first compound 0.08 µM) of 0.17 and a relative viability ([4]; first compound 0.8 µM) of 0.281. The relative viability ([4]; first compound 2.53 µM) was 0.189, the relative viability ([4]; first compound 8 µM) was 0.198 and the relative viability ([5]; first compound 0.08 µM) was 0.257. It also gave a relative viability ([5]; first compound 0.8 µM) of 0.603, a relative viability ([5]; first compound 2.53 µM) of 0.637 and a relative viability ([5]; first compound 8 µM) of 0.421. For the same molecule, the relative viability ([6]; first compound 0.08 µM) was 0.848, the relative viability ([6]; first compound 0.8 µM) was 0.954 and the relative viability ([6]; first compound 2.53 µM) was 0.935. The relative viability ([6]; first compound 8 µM) was 0.965, the relative viability ([7]; first compound 0.08 µM) was 0.16 and the relative viability ([7]; first compound 0.8 µM) was 0.196. It also gave a relative viability ([7]; first compound 2.53 µM) of 0.212, a relative viability ([7]; first compound 8 µM) of 0.185 and a relative viability ([8]; first compound 0.08 µM) of 0.712. It also gave a relative viability ([8]; first compound 0.8 µM) of 0.986, a relative viability ([8]; first compound 2.53 µM) of 0.888 and a relative viability ([8]; first compound 8 µM) of 0.637. The relative viability ([9]; first compound 0.08 µM) was 0.464, the relative viability ([9]; first compound 0.8 µM) was 0.447 and the relative viability ([9]; first compound 2.53 µM) was 0.44. The relative viability ([9]; first compound 8 µM) was 0.306, the relative viability ([10]; first compound 0.08 µM) was 1.05 and the relative viability ([10]; first compound 0.8 µM) was 0.795. It also gave a relative viability ([10]; first compound 2.53 µM) of 1.43, a relative viability ([10]; first compound 8 µM) of 0.904 and a relative viability ([11]; first compound 0.08 µM) of 0.529. For the same molecule, the relative viability ([11]; first compound 0.8 µM) was 0.755, the relative viability ([11]; first compound 2.53 µM) was 0.776 and the relative viability ([11]; first compound 8 µM) was 0.587. It also gave a relative viability ([12]; first compound 0.08 µM) of 0.976, a relative viability ([12]; first compound 0.8 µM) of 0.998 and a relative viability ([12]; first compound 2.53 µM) of 0.966. It also gave a relative viability ([12]; first compound 8 µM) of 1.18, a relative viability ([13]; first compound 0.08 µM) of 0.148 and a relative viability ([13]; first compound 0.8 µM) of 0.13. The relative viability ([13]; first compound 2.53 µM) was 0.228 and the relative viability ([13]; first compound 8 µM) was 0.151.
